This note sets out measurements from ChEMBL document CHEMBL5653631, “A Potent and Selective ULK1 Inhibitor Suppresses Autophagy and Sensitizes Cancer Cells to Nutrient Stress” (iScience, 2018).

Assay [1] addresses Serine/threonine-protein kinase PAK 3 (Homo sapiens) (UniProt O75914). The experiment in a line: Inhibition of human recombinant PAK3 at 40 nM related to control ULK1.
The target in assay [2] is Phosphorylase b kinase gamma catalytic chain, skeletal muscle/heart isoform (Homo sapiens) (UniProt Q16816). The experiment in a line: Inhibition of human recombinant PHKg1 at 40 nM related to control ULK1.
For assay [3], the target named is Calcium/calmodulin-dependent protein kinase type II subunit delta (Homo sapiens) (UniProt Q13557). The experiment in a line: Inhibition of human recombinant CaMK2d at 500 nM in presence of ATP by radiometric assay relative to control.
Assay [4] has as its target Receptor-type tyrosine-protein kinase FLT3 (Homo sapiens) (UniProt P36888). The experiment in a line: Inhibition of human recombinant FLT3 at 500 nM in presence of ATP by radiometric assay relative to control.
Assay [5] concerns the target T1, Tyrosine-protein kinase receptor TYRO3 (Homo sapiens) (UniProt Q06418).
T1 sequence (whole entry): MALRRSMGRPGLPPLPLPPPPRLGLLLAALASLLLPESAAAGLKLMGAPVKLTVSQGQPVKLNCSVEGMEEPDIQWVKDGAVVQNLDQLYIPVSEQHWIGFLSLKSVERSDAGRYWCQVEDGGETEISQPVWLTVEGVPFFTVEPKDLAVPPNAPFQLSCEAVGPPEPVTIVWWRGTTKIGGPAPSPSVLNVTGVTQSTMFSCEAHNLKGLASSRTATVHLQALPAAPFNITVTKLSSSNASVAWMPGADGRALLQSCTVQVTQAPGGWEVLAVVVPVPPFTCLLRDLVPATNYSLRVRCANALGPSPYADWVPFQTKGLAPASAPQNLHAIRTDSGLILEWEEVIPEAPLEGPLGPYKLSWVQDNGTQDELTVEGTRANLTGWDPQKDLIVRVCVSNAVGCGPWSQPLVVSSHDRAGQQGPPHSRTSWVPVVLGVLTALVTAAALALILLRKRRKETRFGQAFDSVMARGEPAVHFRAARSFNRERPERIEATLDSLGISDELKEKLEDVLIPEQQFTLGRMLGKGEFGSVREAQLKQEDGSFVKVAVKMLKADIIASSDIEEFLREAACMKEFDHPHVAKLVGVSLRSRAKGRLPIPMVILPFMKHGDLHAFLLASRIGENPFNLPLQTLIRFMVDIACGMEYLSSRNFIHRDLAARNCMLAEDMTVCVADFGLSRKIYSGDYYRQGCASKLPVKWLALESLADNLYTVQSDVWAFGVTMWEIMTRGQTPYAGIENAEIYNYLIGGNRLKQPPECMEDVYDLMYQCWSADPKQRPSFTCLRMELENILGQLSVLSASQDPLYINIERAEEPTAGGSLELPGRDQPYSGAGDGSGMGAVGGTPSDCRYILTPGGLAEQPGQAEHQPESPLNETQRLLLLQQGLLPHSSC
The experiment in a line: Inhibition of human recombinant TYRO3 at 500 nM in presence of ATP by radiometric assay relative to control.

The target in assay [6] is T2, Serine/threonine-protein kinase NLK (Homo sapiens) (UniProt Q9UBE8).
T2 sequence (whole entry): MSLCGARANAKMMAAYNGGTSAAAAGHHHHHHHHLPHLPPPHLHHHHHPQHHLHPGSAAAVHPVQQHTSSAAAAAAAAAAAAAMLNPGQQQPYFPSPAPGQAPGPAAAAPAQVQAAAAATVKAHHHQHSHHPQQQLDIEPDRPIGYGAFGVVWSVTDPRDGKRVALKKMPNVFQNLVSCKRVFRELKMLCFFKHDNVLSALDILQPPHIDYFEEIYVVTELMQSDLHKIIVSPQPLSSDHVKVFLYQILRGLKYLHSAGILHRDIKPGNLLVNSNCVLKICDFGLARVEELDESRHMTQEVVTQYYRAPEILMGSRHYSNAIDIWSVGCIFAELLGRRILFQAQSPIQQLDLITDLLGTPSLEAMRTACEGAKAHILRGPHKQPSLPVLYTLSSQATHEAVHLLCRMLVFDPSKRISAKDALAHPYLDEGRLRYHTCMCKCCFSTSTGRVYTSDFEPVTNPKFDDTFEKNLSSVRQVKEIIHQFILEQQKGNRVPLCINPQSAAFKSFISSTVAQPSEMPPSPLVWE
The experiment in a line: Inhibition of human recombinant NLK at 500 nM related to control ULK1.

Assay [7] has as its target Activin receptor type-2A (Homo sapiens) (UniProt P27037). Briefly: Inhibition of human recombinant ACTR2 at 500 nM in presence of ATP by radiometric assay relative to control.
Assay [8] has as its target Cyclin-dependent kinase 12 (Homo sapiens) (UniProt Q9NYV4). The experiment in a line: Inhibition of human recombinant CRK7 at 15 nM related to control ULK1.
Assay [9] concerns the target Insulin receptor (Homo sapiens) (UniProt P06213). Briefly: Inhibition of human recombinant INSR at 15 nM related to control ULK1.
The target of assay [10] is T3, NUAK family SNF1-like kinase 2 (Homo sapiens) (UniProt Q9H093).
T3 sequence (whole entry): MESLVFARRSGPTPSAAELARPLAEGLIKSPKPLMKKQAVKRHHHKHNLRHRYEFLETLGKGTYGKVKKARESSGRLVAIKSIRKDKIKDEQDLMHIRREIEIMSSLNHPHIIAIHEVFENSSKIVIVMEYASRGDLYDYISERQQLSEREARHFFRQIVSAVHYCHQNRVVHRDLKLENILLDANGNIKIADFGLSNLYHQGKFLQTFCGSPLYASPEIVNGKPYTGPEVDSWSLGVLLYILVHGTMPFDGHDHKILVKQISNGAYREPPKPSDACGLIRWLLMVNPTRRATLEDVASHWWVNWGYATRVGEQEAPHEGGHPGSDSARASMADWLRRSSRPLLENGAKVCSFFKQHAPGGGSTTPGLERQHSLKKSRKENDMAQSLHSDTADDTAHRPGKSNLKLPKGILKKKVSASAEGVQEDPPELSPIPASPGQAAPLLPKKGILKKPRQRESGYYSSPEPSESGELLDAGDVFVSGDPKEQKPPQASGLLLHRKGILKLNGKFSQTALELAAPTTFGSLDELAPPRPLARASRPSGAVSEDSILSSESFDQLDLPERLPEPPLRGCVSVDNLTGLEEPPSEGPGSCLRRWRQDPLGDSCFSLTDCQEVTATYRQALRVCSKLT
The experiment in a line: Inhibition of human recombinant NuaK2 at 15 nM related to control ULK1.

The target in assay [11] is Wee1-like protein kinase (Homo sapiens) (UniProt P30291). The experiment in a line: Inhibition of human recombinant Wee1 at 15 nM related to control ULK1.

`O=C(N[C@@H](C1CC1)C(F)(F)F)c1cc(-c2cnn3cc(-c4ccc(F)cc4)cnc23)cs1`: the fold change (FC) in assay [1] came out at 0; in [2], 0.16.

In general, inhibition refers to how much of the control response was suppressed. As for `CNC(=O)c1ccccc1Oc1nc(Nc2cc(OC)c(OC)c(OC)c2)ncc1Br`, the inhibition in assay [3] stood at 9%; in assay [4] it was 57%; in assay [5] it was 10%; in assay [7] it was 3%. Moreover, in assay [6], the fold change (FC) is 0.05.

As for `CC(C)[C@H](NC(=O)c1cc(-c2cnn3cc(-c4ccc(OCCN5CCCCC5)cc4)cnc23)cs1)C(F)(F)F`, the fold change (FC) came to 0.05 in assay [8], 0 in assay [9], 0.2 in assay [10] and 0.17 in assay [11].
